Numbers after ± are expanded uncertainties.
Experiment: xn = mol fraction of the nth substance listed
Settings: 101 kPa, Liquid; for speed of sound: Single path-length method

CCc1ccccc1 [ethylbenzene] + COC(C)(C)C
Settings | mass density [kg/m3] | speed of sound [m/s]
288.15 K, x2 = 0 | 871.245 ± 0.36 | 1360.7 ± 2.1
288.15 K, x2 = 0.046 | 866.075 ± 0.39 | 1348.3 ± 2.1
288.15 K, x2 = 0.106 | 859.155 ± 0.4 | 1334.4 ± 2.1
288.15 K, x2 = 0.212 | 846.925 ± 0.42 | 1307.2 ± 2.1
288.15 K, x2 = 0.299 | 836.536 ± 0.43 | 1284.6 ± 2.1
288.15 K, x2 = 0.402 | 823.953 ± 0.45 | 1256.7 ± 2.1
288.15 K, x2 = 0.503 | 812.763 ± 0.47 | 1231.4 ± 2.1
288.15 K, x2 = 0.6 | 799.067 ± 0.49 | 1201.3 ± 2.1
288.15 K, x2 = 0.701 | 785.93 ± 0.51 | 1171.9 ± 2.1
288.15 K, x2 = 0.822 | 769.744 ± 0.53 | 1136.2 ± 2.1
288.15 K, x2 = 0.899 | 759.058 ± 0.55 | 1112.7 ± 2.1
288.15 K, x2 = 0.948 | 752.102 ± 0.56 | 1097.3 ± 2.1
290.65 K, x2 = 0 | 869.052 ± 0.37 | 1349.9 ± 2.1
290.65 K, x2 = 0.046 | 863.868 ± 0.39 | 1337.6 ± 2.1
290.65 K, x2 = 0.106 | 856.925 ± 0.4 | 1323.4 ± 2.1
290.65 K, x2 = 0.212 | 844.671 ± 0.42 | 1296.3 ± 2.1
290.65 K, x2 = 0.299 | 834.249 ± 0.44 | 1273.7 ± 2.1
290.65 K, x2 = 0.402 | 821.631 ± 0.45 | 1245.6 ± 2.1
290.65 K, x2 = 0.503 | 810.408 ± 0.47 | 1220.2 ± 2.1
290.65 K, x2 = 0.6 | 796.665 ± 0.49 | 1190.1 ± 2.1
290.65 K, x2 = 0.701 | 783.488 ± 0.51 | 1160.5 ± 2.1
290.65 K, x2 = 0.822 | 767.243 ± 0.54 | 1124.5 ± 2.1
290.65 K, x2 = 0.899 | 756.516 ± 0.55 | 1100.7 ± 2.1
290.65 K, x2 = 0.948 | 749.532 ± 0.56 | 1085.4 ± 2.1
293.15 K, x2 = 0 | 866.856 ± 0.37 | 1339.4 ± 2.1
293.15 K, x2 = 0.046 | 861.653 ± 0.4 | 1326.8 ± 2.1
293.15 K, x2 = 0.106 | 854.698 ± 0.41 | 1312.7 ± 2.1
293.15 K, x2 = 0.212 | 842.406 ± 0.42 | 1285.5 ± 2.1
293.15 K, x2 = 0.299 | 831.951 ± 0.44 | 1262.8 ± 2.1
293.15 K, x2 = 0.402 | 819.3 ± 0.46 | 1234.6 ± 2.1
293.15 K, x2 = 0.503 | 808.048 ± 0.47 | 1209.2 ± 2.1
293.15 K, x2 = 0.6 | 794.26 ± 0.5 | 1179 ± 2.1
293.15 K, x2 = 0.701 | 781.04 ± 0.52 | 1149.3 ± 2.1
293.15 K, x2 = 0.822 | 764.736 ± 0.54 | 1113.2 ± 2.1
293.15 K, x2 = 0.899 | 753.964 ± 0.56 | 1089.2 ± 2.1
293.15 K, x2 = 0.948 | 746.956 ± 0.57 | 1073.8 ± 2.1
295.65 K, x2 = 0 | 864.66 ± 0.37 | 1328.9 ± 2.1
295.65 K, x2 = 0.046 | 859.445 ± 0.4 | 1316.3 ± 2.1
295.65 K, x2 = 0.106 | 852.469 ± 0.41 | 1302 ± 2.1
295.65 K, x2 = 0.212 | 840.144 ± 0.43 | 1274.8 ± 2.1
295.65 K, x2 = 0.299 | 829.658 ± 0.44 | 1252 ± 2.1
295.65 K, x2 = 0.402 | 816.97 ± 0.46 | 1223.7 ± 2.1
295.65 K, x2 = 0.503 | 805.684 ± 0.48 | 1198.2 ± 2.1
295.65 K, x2 = 0.6 | 791.851 ± 0.5 | 1167.8 ± 2.1
295.65 K, x2 = 0.701 | 778.587 ± 0.52 | 1138.1 ± 2.1
295.65 K, x2 = 0.822 | 762.221 ± 0.54 | 1101.8 ± 2.1
295.65 K, x2 = 0.899 | 751.405 ± 0.56 | 1077.7 ± 2.1
295.65 K, x2 = 0.948 | 744.369 ± 0.57 | 1062.3 ± 2.1
298.15 K, x2 = 0 | 862.459 ± 0.38 | 1318.4 ± 2.1
298.15 K, x2 = 0.046 | 857.231 ± 0.4 | 1306 ± 2.1
298.15 K, x2 = 0.106 | 850.237 ± 0.41 | 1291.4 ± 2.1
298.15 K, x2 = 0.212 | 837.881 ± 0.43 | 1264.1 ± 2.1
298.15 K, x2 = 0.299 | 827.364 ± 0.45 | 1241.2 ± 2.1
298.15 K, x2 = 0.402 | 814.636 ± 0.46 | 1212.7 ± 2.1
298.15 K, x2 = 0.503 | 803.312 ± 0.48 | 1187.3 ± 2.1
298.15 K, x2 = 0.6 | 789.435 ± 0.51 | 1156.8 ± 2.1
298.15 K, x2 = 0.701 | 776.124 ± 0.52 | 1127 ± 2.1
298.15 K, x2 = 0.822 | 759.695 ± 0.55 | 1090.5 ± 2.1
298.15 K, x2 = 0.899 | 748.835 ± 0.56 | 1066.3 ± 2.1
298.15 K, x2 = 0.948 | 741.772 ± 0.57 | 1050.8 ± 2.1
300.65 K, x2 = 0 | 860.256 ± 0.38 | 1307.9 ± 2.1
300.65 K, x2 = 0.046 | 855.014 ± 0.41 | 1295.8 ± 2.1
300.65 K, x2 = 0.106 | 848.001 ± 0.42 | 1280.9 ± 2.1
300.65 K, x2 = 0.212 | 835.613 ± 0.43 | 1253.5 ± 2.1
300.65 K, x2 = 0.299 | 825.064 ± 0.45 | 1230.5 ± 2.1
300.65 K, x2 = 0.402 | 812.278 ± 0.47 | 1201.5 ± 2.1
300.65 K, x2 = 0.503 | 800.937 ± 0.49 | 1176.4 ± 2.1
300.65 K, x2 = 0.6 | 787.011 ± 0.51 | 1145.7 ± 2.1
300.65 K, x2 = 0.701 | 773.654 ± 0.53 | 1115.9 ± 2.1
300.65 K, x2 = 0.822 | 757.162 ± 0.55 | 1079.2 ± 2.1
300.65 K, x2 = 0.899 | 746.257 ± 0.57 | 1054.9 ± 2.1
300.65 K, x2 = 0.948 | 739.163 ± 0.58 | 1039.4 ± 2.1
303.15 K, x2 = 0 | 858.047 ± 0.38 | 1297.5 ± 2.1
303.15 K, x2 = 0.046 | 852.795 ± 0.41 | 1285.5 ± 2.1
303.15 K, x2 = 0.106 | 845.762 ± 0.42 | 1270.4 ± 2.1
303.15 K, x2 = 0.212 | 833.338 ± 0.44 | 1242.9 ± 2.1
303.15 K, x2 = 0.299 | 822.758 ± 0.45 | 1219.8 ± 2.1
303.15 K, x2 = 0.402 | 809.93 ± 0.47 | 1190.7 ± 2.1
303.15 K, x2 = 0.503 | 798.555 ± 0.49 | 1165.5 ± 2.1
303.15 K, x2 = 0.6 | 784.554 ± 0.51 | 1134.2 ± 2.1
303.15 K, x2 = 0.701 | 771.175 ± 0.53 | 1104.8 ± 2.1
303.15 K, x2 = 0.822 | 754.617 ± 0.56 | 1068 ± 2.1
303.15 K, x2 = 0.899 | 743.666 ± 0.57 | 1043.6 ± 2.1
303.15 K, x2 = 0.948 | 736.543 ± 0.58 | 1028 ± 2.1
305.65 K, x2 = 0 | – | 1287.1 ± 2.1
305.65 K, x2 = 0.046 | – | 1275.2 ± 2.1
305.65 K, x2 = 0.106 | – | 1260 ± 2.1
305.65 K, x2 = 0.212 | – | 1232.4 ± 2.1
305.65 K, x2 = 0.299 | – | 1209.2 ± 2.1
305.65 K, x2 = 0.402 | – | 1180 ± 2.1
305.65 K, x2 = 0.503 | – | 1154.7 ± 2.1
305.65 K, x2 = 0.6 | – | 1123.2 ± 2.1
305.65 K, x2 = 0.701 | – | 1093.7 ± 2.1
305.65 K, x2 = 0.822 | – | 1056.8 ± 2.1
305.65 K, x2 = 0.899 | – | 1032.3 ± 2.1
305.65 K, x2 = 0.948 | – | 1016.6 ± 2.1

Reference: the NIST ThermoML archive (doi:10.1007/s10765-007-0223-x)
